Calls of active or inactive are those of the source. The rule behind the calls is not given here.
Legend:
Type in all cases: functional
Aspergillus oryzae [1] = assay: Antimicrobial activity against Aspergillus oryzae MTCC 3567 at 1000 ug/ml after 72 hrs by cup plate method; settings: MTCC 3567, 72 h, read-out: IZ
Staphylococcus aureus [2] = assay: Antimicrobial activity against Staphylococcus aureus ATCC 29513 at 1000 ug/ml after 24 hrs by cup plate method; settings: ATCC 29513, 24 h, read-out: IZ
Aspergillus flavus [3] = assay: Antimicrobial activity against Aspergillus flavus MTCC 1973 at 750 ug/ml after 72 hrs by cup plate method; settings: MTCC 1973, 72 h, read-out: IZ
Aspergillus terreus [4] = assay: Antimicrobial activity against Aspergillus terreus MTCC 1782 at 750 ug/ml after 72 hrs by cup plate method; settings: MTCC 1782, 72 h, read-out: IZ
Aspergillus oryzae [5] = assay: Antimicrobial activity against Aspergillus oryzae MTCC 3567 at 750 ug/ml after 72 hrs by cup plate method; settings: MTCC 3567, 72 h, read-out: IZ
Escherichia coli [6] = assay: Antimicrobial activity against Escherichia coli MTCC 723 at 750 ug/ml after 24 hrs by cup plate method; settings: MTCC 723, 24 h, read-out: IZ
Escherichia coli [7] = assay: Antimicrobial activity against Escherichia coli MTCC 723 at 500 ug/ml after 24 hrs by cup plate method; settings: MTCC 723, 24 h, read-out: IZ
Klebsiella pneumoniae [8] = assay: Antimicrobial activity against Klebsiella pneumoniae NCTC 13368 at 750 ug/ml after 24 hrs by cup plate method; settings: NCTC 13368, 24 h, read-out: IZ
Aspergillus oryzae [9] = assay: Antimicrobial activity against Aspergillus oryzae MTCC 3567 at 500 ug/ml after 72 hrs by cup plate method; settings: MTCC 3567, 72 h, read-out: IZ
Klebsiella pneumoniae [10] = assay: Antimicrobial activity against Klebsiella pneumoniae NCTC 13368 at 1000 ug/ml after 24 hrs by cup plate method; settings: NCTC 13368, 24 h, read-out: IZ
Staphylococcus aureus [11] = assay: Antimicrobial activity against Staphylococcus aureus ATCC 29513 at 750 ug/ml after 24 hrs by cup plate method; settings: ATCC 29513, 24 h, read-out: IZ
Aspergillus terreus [12] = assay: Antimicrobial activity against Aspergillus terreus MTCC 1782 at 1000 ug/ml after 72 hrs by cup plate method; settings: MTCC 1782, 72 h, read-out: IZ
Pseudomonas aeruginosa [13] = assay: Antimicrobial activity against Pseudomonas aeruginosa MTCC 1688 at 500 ug/ml after 24 hrs by cup plate method; settings: MTCC 1688, 24 h, read-out: IZ
Aspergillus niger [14] = assay: Antimicrobial activity against Aspergillus niger MTCC 281 at 1000 ug/ml after 72 hrs by cup plate method; settings: MTCC 281, 72 h, read-out: IZ
Aspergillus flavus [15] = assay: Antimicrobial activity against Aspergillus flavus MTCC 1973 at 500 ug/ml after 72 hrs by cup plate method; settings: MTCC 1973, 72 h, read-out: IZ
Staphylococcus aureus [16] = assay: Antimicrobial activity against Staphylococcus aureus ATCC 29513 at 500 ug/ml after 24 hrs by cup plate method; settings: ATCC 29513, 24 h, read-out: IZ
Aspergillus niger [17] = assay: Antimicrobial activity against Aspergillus niger MTCC 281 at 750 ug/ml after 72 hrs by cup plate method; settings: MTCC 281, 72 h, read-out: IZ
Klebsiella pneumoniae [18] = assay: Antimicrobial activity against Klebsiella pneumoniae NCTC 13368 at 500 ug/ml after 24 hrs by cup plate method; settings: NCTC 13368, 24 h, read-out: IZ
Escherichia coli [19] = assay: Antimicrobial activity against Escherichia coli MTCC 723 at 1000 ug/ml after 24 hrs by cup plate method; settings: MTCC 723, 24 h, read-out: IZ
[20] = Antioxidant activity assessed as metal chelating activity by measuring inhibition of ferrozine-Fe2+ complex formation at 25 to 100 ug/ml
Pseudomonas aeruginosa [21] = assay: Antimicrobial activity against Pseudomonas aeruginosa MTCC 1688 at 1000 ug/ml after 24 hrs by cup plate method; settings: MTCC 1688, 24 h, read-out: IZ
Aspergillus terreus [22] = assay: Antimicrobial activity against Aspergillus terreus MTCC 1782 at 500 ug/ml after 72 hrs by cup plate method; settings: MTCC 1782, 72 h, read-out: IZ
Pseudomonas aeruginosa [23] = assay: Antimicrobial activity against Pseudomonas aeruginosa MTCC 1688 at 750 ug/ml after 24 hrs by cup plate method; settings: MTCC 1688, 24 h, read-out: IZ
Aspergillus niger [24] = assay: Antimicrobial activity against Aspergillus niger MTCC 281 at 500 ug/ml after 72 hrs by cup plate method; settings: MTCC 281, 72 h, read-out: IZ
Aspergillus flavus [25] = assay: Antimicrobial activity against Aspergillus flavus MTCC 1973 at 1000 ug/ml after 72 hrs by cup plate method; settings: MTCC 1973, 72 h, read-out: IZ

| SMILES | zone of inhibition at 1000 µg/mL (Aspergillus oryzae [1]) [mm] | zone of inhibition at 1000 µg/mL (Staphylococcus aureus [2]) [mm] | zone of inhibition at 750 µg/mL (Aspergillus terreus [4]) [mm] | zone of inhibition at 750 µg/mL (Aspergillus oryzae [5]) [mm] | zone of inhibition at 750 µg/mL (Escherichia coli [6]) [mm] | zone of inhibition at 500 µg/mL (Escherichia coli [7]) [mm] | zone of inhibition at 750 µg/mL (Klebsiella pneumoniae [8]) [mm] | zone of inhibition at 500 µg/mL (Aspergillus oryzae [9]) [mm] | zone of inhibition at 1000 µg/mL (Klebsiella pneumoniae [10]) [mm] | zone of inhibition at 750 µg/mL (Staphylococcus aureus [11]) [mm] | zone of inhibition at 1000 µg/mL (Aspergillus terreus [12]) [mm] | zone of inhibition at 500 µg/mL (Pseudomonas aeruginosa [13]) [mm] | zone of inhibition at 1000 µg/mL (Aspergillus niger [14]) [mm] | zone of inhibition at 500 µg/mL (Staphylococcus aureus [16]) [mm] | zone of inhibition at 750 µg/mL (Aspergillus niger [17]) [mm] | zone of inhibition at 500 µg/mL (Klebsiella pneumoniae [18]) [mm] | zone of inhibition at 1000 µg/mL (Escherichia coli [19]) [mm] | zone of inhibition at 1000 µg/mL (Pseudomonas aeruginosa [21]) [mm] | zone of inhibition at 500 µg/mL (Aspergillus terreus [22]) [mm] | zone of inhibition at 750 µg/mL (Pseudomonas aeruginosa [23]) [mm] | other results |
| --- | --- | --- | --- | --- | --- | --- | --- | --- | --- | --- | --- | --- | --- | --- | --- | --- | --- | --- | --- | --- | --- |
| Cc1ccc(C2=CC(c3c(-c4ccccc4)[nH]c4ccc(C)cc34)c3c(nc[nH]c3=O)O2)cc1 (centres undefined) | 3 | 2 | 9 | 3 | 2 | 2 | 8 | 3 | 8 | 2 | 9 | 8 | 3 | 2 | 3 | 8 | 2 | 8 | 9 | 8 | zone of inhibition at 750 µg/mL (Aspergillus flavus [3]): 9 mm; zone of inhibition at 500 µg/mL (Aspergillus flavus [15]): 10 mm; Activity [20]: Active; zone of inhibition at 500 µg/mL (Aspergillus niger [24]): 3 mm; zone of inhibition at 1000 µg/mL (Aspergillus flavus [25]): 9 mm |
| Cc1ccc2[nH]c(-c3ccccc3)c(C3C=C(c4ccccc4)Oc4[nH]nc(N)c43)c2c1 (centres undefined) | 8 | 5 | 9 | 8 | 3 | 3 | 3 | 9 | 3 | 5 | 9 | 9 | 3 | 6 | 5 | 3 | 3 | 8 | 9 | 8 | zone of inhibition at 750 µg/mL (Aspergillus flavus [3]): 2 mm; zone of inhibition at 500 µg/mL (Aspergillus flavus [15]): 5 mm; Activity [20]: Active; zone of inhibition at 500 µg/mL (Aspergillus niger [24]): 5 mm; zone of inhibition at 1000 µg/mL (Aspergillus flavus [25]): 1 mm |
| Nc1nc(=S)[nH]c2c1C(c1c(-c3ccccc3)[nH]c3ccccc13)C=C(c1ccccc1)O2 (centres undefined) | 8 | 0 | 5 | 8 | 10 | 10 | 8 | 9 | 8 | 2 | 5 | 2 | 14 | 2 | 12 | 9 | 11 | 2 | 5 | 2 | zone of inhibition at 750 µg/mL (Aspergillus flavus [3]): 9 mm; zone of inhibition at 500 µg/mL (Aspergillus flavus [15]): 9 mm; Activity [20]: Active; zone of inhibition at 500 µg/mL (Aspergillus niger [24]): 12 mm; zone of inhibition at 1000 µg/mL (Aspergillus flavus [25]): 9 mm |
| N#CC1=C(N)OC(c2ccc(Cl)cc2)=CC1c1c(-c2ccccc2)[nH]c2ccccc12 (centres undefined) | 3 | 10 | 13 | 9 | 5 | 5 | 2 | 9 | 2 | 10 | 13 | 10 | 5 | 10 | 6 | 2 | 3 | 8 | 12 | 8 | Activity [20]: Active; zone of inhibition at 500 µg/mL (Aspergillus niger [24]): 8 mm; zone of inhibition at 1000 µg/mL (Aspergillus flavus [25]): 2 mm |
| OC(Cn1cncn1)(Cn1cncn1)c1ccc(F)cc1F [FLUCONAZOLE] | 14 |  | 14 | 14 |  |  |  | 13 |  |  | 14 |  | 14 |  | 13 |  |  |  | 13 |  | zone of inhibition at 750 µg/mL (Aspergillus flavus [3]): 13 mm; zone of inhibition at 500 µg/mL (Aspergillus flavus [15]): 13 mm; zone of inhibition at 500 µg/mL (Aspergillus niger [24]): 13 mm; zone of inhibition at 1000 µg/mL (Aspergillus flavus [25]): 14 mm |
| N#Cc1c(N)c2c(N)c3c(nc2oc1=O)OC(c1ccccc1)=CC3c1c(-c2ccccc2)[nH]c2ccccc12 (centres undefined) | 11 | 9 | 5 | 11 | 8 | 8 | 11 | 11 | 10 | 10 | 5 | 5 | 10 | 10 | 3 | 11 | 10 | 3 | 5 | 7 | zone of inhibition at 750 µg/mL (Aspergillus flavus [3]): 3 mm; zone of inhibition at 500 µg/mL (Aspergillus flavus [15]): 5 mm; Activity [20]: Active; zone of inhibition at 500 µg/mL (Aspergillus niger [24]): 5 mm |
| CN[C@@H]1[C@H](O[C@H]2[C@H](O[C@H]3[C@H](O)[C@@H](O)[C@H](N=C(N)N)[C@@H](O)[C@@H]3N=C(N)N)O[C@@H](C)[C@]2(O)C=O)O[C@@H](CO)[C@H](O)[C@H]1O [STREPTOMYCIN] |  | 15 |  |  | 14 | 14 | 14 |  | 14 | 15 |  | 13 |  | 15 |  | 14 | 15 | 14 |  | 13 |  |
| N#Cc1c(N)c2c(N)c3c(nc2oc1=O)OC(c1ccccc1)=CC3c1c(-c2ccccc2)[nH]c2ccc(Cl)cc12 (centres undefined) | 13 | 14 | 3 | 12 | 10 | 10 | 5 | 12 | 5 | 13 | 3 | 9 | 10 | 13 | 9 | 5 | 8 | 5 | 3 | 8 | zone of inhibition at 750 µg/mL (Aspergillus flavus [3]): 3 mm; zone of inhibition at 500 µg/mL (Aspergillus flavus [15]): 5 mm; Activity [20]: Active; zone of inhibition at 500 µg/mL (Aspergillus niger [24]): 9 mm |
| Cc1ccc2[nH]c(-c3ccccc3)c(C3C=C(c4ccccc4)Oc4nc5oc(=O)c(C#N)c(N)c5c(N)c43)c2c1 (centres undefined) | 8 | 4 | 4 | 8 | 9 | 10 | 4 | 11 | 4 | 8 | 4 | 3 | 10 | 9 | 10 | 4 | 5 | 0 | 9 | 3 | zone of inhibition at 750 µg/mL (Aspergillus flavus [3]): 0 mm; zone of inhibition at 500 µg/mL (Aspergillus flavus [15]): 5 mm; Activity [20]: Active; zone of inhibition at 500 µg/mL (Aspergillus niger [24]): 10 mm |
